Measured values: patent US20230107983A1, “COMPOUND ISOLATED FROM TORILIDIS FRUCTUS, AND ANTICANCER PHARMACEUTICAL COMPOSITION CONTAINING SAME AS ACTIVE INGREDIENT” (PHARMA-GENE CO., LTD., priority 2020, published 2023)
Values belong to the compound of their own block, whether it stands above or below them.

Key:
[1] = tested on: human colorectal cancer cells (HCT116); test: Nude mouse xenograft model of human colorectal cancer cells, intraperitoneal administration; format: in vivo; details: for tumor size compared to the control group: after day 14
Protocol: Anticancer activity against colorectal cancer according to the intraperitoneal administration of Tr-9 was confirmed through a nude mouse xenograft model of human colorectal cancer cells (HCT116). In Example 5, Example 4 was repeated except for using colorectal cancer cells.
Specific pathogen-free (SPF) nude mice of the BALB/C strain were used as the animal model. Animals were bred in the animal room of Daedeok Campus of Hannam University maintained at a temperature of 23±3° C., relative humidity of 55±15%, ventilation frequency of 10-20 times/hr, lighting time of 12 hours(lights on at 8 am and off at 8 pm) and illuminance of 150 to 300 Lux.
For cancer cell transplantation, all cells were collected and counted on the last day of culture, and the concentration of human colorectal cancer cell line HCT116 was adjusted to 5×10^6 cells/ml using PBS. The adjusted cell culture solution was injected subcutaneously into the auxiliary region between the right scapula and chest wall at 0.2 ml (1×10^6 cells/mouse) per mouse.
The Tr-9 was dissolved in sterile PBS and 1 mM Tr-9 200 µℓ was intraperitoneally administered per mouse once a day, and all animals were weighed immediately before the start of drug (Tr-9) administration and 9 times in total from day 2 to day 21 after cancer cell transplantation (Table 7).
(§1) In Table 7 above, data values are the mean ± standard deviation. After measuring the body weight, the animals were killed using CO2 gas, and the tumor was separated and the size was measured in 3 directions using a vernier caliper for each animal. Then, the change in tumor size was expressed as a calculated value of (length × width × height)/2 (Table 8).
Tumor size increase is (Δt)═ Vt—Vo, wherein Vt is the value of measuring the tumor size by date, and Vo is the value of measuring the initial tumor size.

[2] = Change in mouse weight, A549 xenograft, intraperitoneal administration; format: in vivo, nude mouse; parameters: Change in mouse weight: unit not given here; details: once a day; for difference in body weight according to the administration of the drugs: day 2 to day 23
Protocol: The Tr-9 was dissolved in sterile PBS and 1 mM Tr-9 200 µℓ was intraperitoneally administered per mouse once a day, and all animals were weighed immediately before the start of drug (Tr-9) administration and 10 times in total from day 2 to day 23 after cancer cell transplantation (Table 4).
as §1, with “4” for “7”, “4).” for “8).”

[3] = tested on: Lung cancer(A549) cell line; test: WST-1 assay, cell viability of lung cancer cell line; format: cell-based, human; details: 10-100 µg/Mℓ, 24 hours, FIG. 3
Protocol: (§2) The cytotoxicity of the Tr-9 compound to six cancer cell lines was confirmed. Lung cancer(A549), gastric cancer(AGS), liver cancer(Hep3B)), breast cancer(MDA-MB-231), colorectal cancer(HCT116) and pancreatic cancer(BxPC-3) cell lines and fibroblasts were aliquoted in a 96-well plate in an amount of 5×10^3 cells/well, and the novel compound Tr-9 was treated thereto at a concentration of 10, 20, 40, 60, 80, 100 µg/Mℓ for 24 hours, respectively. Lung cancer cell line was further treated at a concentration of 100 µg/Mℓ for 24 hours, 48 hours and 72 hours.
(§3) Then, the amount of living cells was measured using WST(high sensitive Water Soluble Tetrazolium salt). WST reacts with dehydrogenase in living cells and produces orange-colored watersoluble formazan. Since dehydrogenase that reacts with WST is an enzyme present in the mitochondrial electron transport chain of metabolically active cells and is effective only in living cells, the production of formazan is proportional to the number of living cells. Therefore, the absorbance at 450 nm was measured to confirm the cell viability through the formation of formazan.

[4] = tested on: gastric cancer(AGS) cell line; test: WST-1 assay, cell viability of gastric cancer cell line; format: cell-based; details: 10-100 µg/Mℓ, 24 hours, FIG. 4
Protocol: as §2, §3

[5] = tested on: liver cancer(Hep3B) cell line; test: WST-1 assay, cell viability of liver cancer cell line; format: cell-based; details: 10-100 µg/Mℓ, 24 hours, FIG. 6
Protocol: as §2, §3

[6] = tested on: breast cancer(MDA-MB-231) cell line; test: WST-1 assay, cell viability of breast cancer cell line; format: cell-based; details: 10-100 µg/Mℓ, 24 hours, FIG. 5
Protocol: as §2, §3

[7] = tested on: colorectal cancer(HCT116) cell line; test: WST-1 assay, cell viability of colorectal cancer cell line; format: cell-based, human; details: 10-100 µg/Mℓ, 24 hours, FIG. 7
Protocol: as §2, §3

[8] = tested on: pancreatic cancer(BxPC-3) cell line; test: WST-1 assay, cell viability of pancreatic cancer cell line; format: cell-based; details: 10-100 µg/Mℓ, 24 hours, FIG. 8
Protocol: as §2, §3

Human fibroblast = test: WST-1 assay, cell viability of fibroblasts (normal cells); format: cell-based; details: 10-100 µg/Mℓ, 24 hours, FIG. 9
Protocol: as §2, §3

[9] = intraperitoneal once a day, Day 0, table title: Change in tumor size
[10] = intraperitoneal once a day, Day 2, table title: Change in tumor size
[11] = intraperitoneal once a day, Day 2, vs control
[12] = intraperitoneal once a day, Day 5, table title: Change in tumor size
[13] = intraperitoneal once a day, Day 5, vs control
[14] = intraperitoneal once a day, Day 7, table title: Change in tumor size
[15] = intraperitoneal once a day, Day 7, vs control
[16] = intraperitoneal once a day, Day 9, table title: Change in tumor size
[17] = intraperitoneal once a day, Day 9, vs control
[18] = intraperitoneal once a day, Day 11, table title: Change in tumor size
[19] = intraperitoneal once a day, Day 11, vs control
[20] = intraperitoneal once a day, Day 14, table title: Change in tumor size
[21] = intraperitoneal once a day, Day 14, vs control
[22] = intraperitoneal once a day, Day 16, table title: Change in tumor size
[23] = intraperitoneal once a day, Day 16, vs control
[24] = intraperitoneal once a day, Day 18, table title: Change in tumor size
[25] = intraperitoneal once a day, Day 18, vs control
[26] = intraperitoneal once a day, Day 21
[27] = intraperitoneal once a day, Day 21, table title: Change in tumor size
[28] = intraperitoneal once a day, Day 21, vs control

Change in mouse weight ([2]; 0 Day after drug treatment): 100.0 ±0.0 | Change in mouse weight ([2]; 2 Days after drug treatment): 98.2 ±1.5 | Change in mouse weight ([2]; 5 Days after drug treatment): 98.2 ±1.4 | Change in mouse weight ([2]; 7 Days after drug treatment): 97.6 ±1.0 | Change in mouse weight ([2]; 9 Days after drug treatment): 102.7 ±2.7 | Change in mouse weight ([2]; 12 Days after drug treatment): 101.0 ±3.1 | Change in mouse weight ([2]; 14 Days after drug treatment): 101.2 ±2.6 | Change in mouse weight ([2]; 16 Days after drug treatment): 102.3 ±3.8 | Change in mouse weight ([2]; 19 Days after drug treatment): 103.4 ±5.2 | Change in mouse weight ([2]; 21 Days after drug treatment): 102.9 ±4.1 | Change in mouse weight ([2]; 23 Days after drug treatment): 105.0 ±4.6
SMILES: C/C=C(/C)C(=O)O[C@@H]1C[C@H](C)[C@H]2CC(=O)C(C)=C2C[C@@H]1C(C)(C)OC(C)=O [Torilin, torilin, reference compound]
Tumor size increase (Vt−V0) [1, 9]: 0.0±0.0 | Tumor size increase (Vt−V0) [1, 10]: 54.7±16.2 | Inhibition rate (tumor size increase) [1, 11]: 17.4% | Tumor size increase (Vt−V0) [1, 12]: 151.4±33.3 | Inhibition rate (tumor size increase) [1, 13]: 16.3% | Tumor size increase (Vt−V0) [1, 14]: 362.7±59.4 | Inhibition rate (tumor size increase) [1, 15]: 18.9% | Tumor size increase (Vt−V0) [1, 16]: 565.9±142.4 | Inhibition rate (tumor size increase) [1, 17]: 19.1% | Tumor size increase (Vt−V0) [1, 18]: 816.9±248.1 | Inhibition rate (tumor size increase) [1, 19]: 20.6% | Tumor size increase (Vt−V0) [1, 20]: 1086.2±458.4 | Inhibition rate (tumor size increase) [1, 21]: 21.2% | Tumor size increase (Vt−V0) [1, 22]: 1319.9±614.0 | Inhibition rate (tumor size increase) [1, 23]: 26.5% | Tumor size increase (Vt−V0) [1, 24]: 1555.6±640.5 | Inhibition rate (tumor size increase) [1, 25]: 24.0% | Tumor weight at Day 21 [1, 26]: 2.85 ± 0.834 g | Tumor weight reduction rate compared to control group [1, 26]: 25.9% | Tumor size increase (Vt−V0) [1, 27]: 1973.3±821.1 | Inhibition rate (tumor size increase) [1, 28]: 25.2% | tumor size compared to the control group ([1]; intraperitoneal): statistically significantly smaller | difference in body weight according to the administration of the drugs [2]: almost no difference in body weight

Change in mouse weight ([2]; 0 Day after drug treatment): 100.0 ±0.0 | Change in mouse weight ([2]; 2 Days after drug treatment): 98.2 ±1.0 | Change in mouse weight ([2]; 5 Days after drug treatment): 94.7 ±2.5 | Change in mouse weight ([2]; 7 Days after drug treatment): 94.1 ±2.2 | Change in mouse weight ([2]; 9 Days after drug treatment): 99.7 ±2.7 | Change in mouse weight ([2]; 12 Days after drug treatment): 96.7 ±3.1 | Change in mouse weight ([2]; 14 Days after drug treatment): 97.3 ±2.8 | Change in mouse weight ([2]; 16 Days after drug treatment): 100.2 ±1.8 | Change in mouse weight ([2]; 19 Days after drug treatment): 98.3 ±2.9 | Change in mouse weight ([2]; 21 Days after drug treatment): 99.4 ±1.6 | Change in mouse weight ([2]; 23 Days after drug treatment): 100.2 ±2.6
SMILES: CC(=O)OC(C)(C)C1CC2=C(C)C(=O)CC2C(C)CC1OC(=O)CC(C)C (stereo not drawn) [Tr-9]
cell viability [3]: decreases the cell viability | cell viability [4]: decreases the cell viability | cell viability [5]: decreases the cell viability | cell viability [6]: decreases the cell viability | cell viability [7]: decreases the cell viability | cell viability [8]: decreases the cell viability | cell viability of human fibroblast (Human fibroblast): little change in the cell viability | tumor size further reduced compared to the group intraperitoneally administered with the torilin ([1]; intraperitoneal): about 10% | Tumor size increase (Vt−V0) [1, 9]: 0.0±0.0 | Tumor size increase (Vt−V0) [1, 10]: 53.1±17.9 | Inhibition rate (tumor size increase) [1, 11]: 19.8% | Tumor size increase (Vt−V0) [1, 12]: 139.4±40.3 | Inhibition rate (tumor size increase) [1, 13]: 22.9% | Tumor size increase (Vt−V0) [1, 14]: 312.6±71.9 | Inhibition rate (tumor size increase) [1, 15]: 30.1% | Tumor size increase (Vt−V0) [1, 16]: 453.9±112.5 | Inhibition rate (tumor size increase) [1, 17]: 35.1% | Tumor size increase (Vt−V0) [1, 18]: 648.7±112.0 | Inhibition rate (tumor size increase) [1, 19]: 37.0% | Tumor size increase (Vt−V0) [1, 20]: 849.8±110.2 | Inhibition rate (tumor size increase) [1, 21]: 38.3% | Tumor size increase (Vt−V0) [1, 22]: 1075.9±155.6 | Inhibition rate (tumor size increase) [1, 23]: 40.1% | Tumor size increase (Vt−V0) [1, 24]: 1326.9±216.2 | Inhibition rate (tumor size increase) [1, 25]: 35.2% | Tumor weight at Day 21 [1, 26]: 2.48 ± 0.308 g | Tumor size increase (Vt−V0) [1, 27]: 1690.3±144.2 | Inhibition rate (tumor size increase) [1, 28]: 35.9% | tumor size compared to the control group ([1]; intraperitoneal): statistically significantly smaller | difference in body weight according to the administration of the drugs [2]: almost no difference in body weight
